The values below come from publication PMC3891835 (American journal of obstetrics and gynecology, 2012).

By IC50 is commonly meant the point on the concentration scale where inhibition reaches its midpoint.

The conditions of data set [1]: cited from earlier work.
In data set [2] the target is T1, P-glycoprotein (P-gp) (Homo sapiens, UniProt P08183). Nature of the data set: biochemical.
The target in data set [3] is T1, P-glycoprotein (P-gp). The following applies: placental IOV; concentration range tested 100 to 1000 μM; 40 nM [3H]-paclitaxel.

Structures can show the parent of a compound that is named as a salt.

T1 sequence (P08183 whole entry): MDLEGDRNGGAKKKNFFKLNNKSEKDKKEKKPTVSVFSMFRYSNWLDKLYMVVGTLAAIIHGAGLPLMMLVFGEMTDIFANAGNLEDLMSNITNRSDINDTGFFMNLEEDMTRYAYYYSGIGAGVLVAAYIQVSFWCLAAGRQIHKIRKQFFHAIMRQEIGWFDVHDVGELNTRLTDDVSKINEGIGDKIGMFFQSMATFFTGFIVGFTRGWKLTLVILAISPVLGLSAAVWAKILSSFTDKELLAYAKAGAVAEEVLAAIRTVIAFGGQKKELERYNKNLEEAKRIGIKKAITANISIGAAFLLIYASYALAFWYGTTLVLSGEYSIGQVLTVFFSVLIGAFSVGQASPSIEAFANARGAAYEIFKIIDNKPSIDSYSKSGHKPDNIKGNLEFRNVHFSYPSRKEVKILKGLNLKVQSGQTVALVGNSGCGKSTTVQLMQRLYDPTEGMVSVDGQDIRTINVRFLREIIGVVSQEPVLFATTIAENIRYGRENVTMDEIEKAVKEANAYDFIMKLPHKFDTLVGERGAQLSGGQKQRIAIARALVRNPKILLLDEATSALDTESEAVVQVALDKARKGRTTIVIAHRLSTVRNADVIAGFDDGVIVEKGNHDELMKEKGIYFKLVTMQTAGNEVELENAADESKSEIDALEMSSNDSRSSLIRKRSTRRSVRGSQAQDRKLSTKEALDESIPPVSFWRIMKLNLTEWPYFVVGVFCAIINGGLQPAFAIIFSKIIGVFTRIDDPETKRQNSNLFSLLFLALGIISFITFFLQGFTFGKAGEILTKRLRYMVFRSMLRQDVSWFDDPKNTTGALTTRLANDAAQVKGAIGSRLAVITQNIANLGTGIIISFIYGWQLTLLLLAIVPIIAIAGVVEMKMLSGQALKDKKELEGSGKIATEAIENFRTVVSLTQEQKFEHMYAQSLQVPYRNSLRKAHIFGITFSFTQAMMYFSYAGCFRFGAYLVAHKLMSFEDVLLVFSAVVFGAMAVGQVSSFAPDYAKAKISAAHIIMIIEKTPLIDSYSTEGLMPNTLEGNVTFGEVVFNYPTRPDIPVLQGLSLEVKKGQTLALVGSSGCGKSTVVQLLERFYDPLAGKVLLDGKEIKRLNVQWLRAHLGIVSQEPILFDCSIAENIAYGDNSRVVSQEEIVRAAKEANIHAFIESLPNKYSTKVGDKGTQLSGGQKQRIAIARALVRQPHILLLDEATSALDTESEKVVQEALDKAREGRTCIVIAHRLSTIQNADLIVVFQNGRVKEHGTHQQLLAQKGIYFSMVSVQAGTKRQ

For the compound `CCCCCCCCCCNCCN[C@@]1(C)C[C@H](O[C@H]2[C@H](Oc3c4cc5cc3Oc3ccc(cc3Cl)[C@@H](O)[C@@H](NC(=O)[C@@H](CC(C)C)NC)C(=O)N[C@@H](CC(N)=O)C(=O)N[C@H]5C(=O)N[C@H]3C(=O)N[C@H](C(=O)N[C@H](C(=O)O)c5cc(O)c(CNCP(=O)(O)O)c(O)c5-c5cc3ccc5O)[C@H](O)c3ccc(c(Cl)c3)O4)O[C@H](CO)[C@@H](O)[C@@H]2O)O[C@@H](C)[C@H]1O` [telavancin, Telavancin], the binding to proteins in data set [1] was 93%. On P-glycoprotein (P-gp) [2], this compound came in with a half-inhibitory concentration (IC50) of 50 µM.

For `CN[C@H](CC(C)C)C(=O)N[C@H]1C(=O)N[C@@H](CC(N)=O)C(=O)N[C@H]2C(=O)N[C@H]3C(=O)N[C@H](C(=O)N[C@H](C(=O)O)c4cc(O)cc(O)c4-c4cc3ccc4O)[C@H](O)c3ccc(c(Cl)c3)Oc3cc2cc(c3O[C@@H]2O[C@H](CO)[C@@H](O)[C@H](O)[C@H]2O[C@H]2C[C@](C)(N)[C@H](O)[C@H](C)O2)Oc2ccc(cc2Cl)[C@H]1O` [vancomycin, vancomycin hydrochloride], the binding to proteins in data set [1] was 50%. Also, the “effect on the ATP-dependent uptake of [3H]-paclitaxel by IOV” value on P-glycoprotein (P-gp) [3] is “did not affect”.
